Here are results for eleven molecules from patent publication US8202870B2, “Substituted oxindole derivatives, medicaments containing the latter and use thereof” (Abbott GmbH & Co. KG, priority 2005, dated 2012).

In this experiment the target is T1, human V1b receptors (Homo sapiens, UniProt P47901).
T1 construct: expressed in transfected cells; preparation V1b-3H2
T1 sequence (P47901 1-424): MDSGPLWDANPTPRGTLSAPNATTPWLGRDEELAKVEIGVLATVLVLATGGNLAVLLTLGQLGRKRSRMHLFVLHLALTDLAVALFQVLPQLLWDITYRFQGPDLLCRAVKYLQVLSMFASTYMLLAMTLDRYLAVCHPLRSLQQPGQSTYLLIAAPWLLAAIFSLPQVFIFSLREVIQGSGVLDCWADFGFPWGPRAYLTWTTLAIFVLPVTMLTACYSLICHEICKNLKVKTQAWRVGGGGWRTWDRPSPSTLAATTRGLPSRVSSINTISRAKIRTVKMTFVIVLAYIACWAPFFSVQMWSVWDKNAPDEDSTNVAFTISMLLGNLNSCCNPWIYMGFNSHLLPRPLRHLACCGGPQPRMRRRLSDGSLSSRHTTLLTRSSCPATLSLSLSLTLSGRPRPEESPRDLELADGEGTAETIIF
The experiment can be described thus: Vasopressin V1b receptor binding assay. As for the experimental part: Vasopressin V1b Receptor Binding Assay:
This DMSO predilution series was diluted 1:10 with assay buffer. The substance concentration was further diluted 1:10 in the assay mixture.
The nonspecific binding was determined with 10^−6 M AVP. Determinations in triplicate were carried out.
The affinities for the human vasopressin V1b receptor were measured, and affinity constants determined, in the above assay for the inventive examples.
The affinities of the compounds (I) of the invention for the human vasopressin V1b receptor were measured in accordance with the above assays, and the affinity constants. (Ki) were determined. Table 1 below details the V1b receptor affinity of selected compounds (++ means <50 nM and + means 50-500 nM).

The mark [1] stands for this setting: membranes from CHO-K1 cells with human V1b receptors, 3H-AVP displacement, read-out: V1b Ki.
The mark [2] stands for this setting: read-out: Ki values, affinity for the vasopressin V1b receptor.

The structures appear in SMILES notation. Like-named read-outs stand apart in the source and are kept apart here.

`CCOc1ccccc1C1(OC(=O)N2CCN(c3nccs3)CC2)C(=O)N(S(=O)(=O)c2cccc3cccnc23)c2ccc(C#N)cc21` (stereo not drawn) [Example 1, 5-Cyano-3-(2-ethoxyphenyl)-2-oxo-1-(quinoline-8-sulfonyl)-2,3-dihydro-1H-indol-3-yl 4-(thiazol-2-yl)piperazine-1-carboxylate]: the inhibitory constant (Ki) – broadly, a dissociation constant, usually derived from enzyme kinetics or from competition with a known ligand – reads like this: under setting [1], less than 50 nM; under setting [2], less than 100 nM.

Consider `CCOc1ccccc1C1(NC(=O)N2CCN(c3ccncc3)CC2)C(=O)N(S(=O)(=O)c2cccc3cccnc23)c2ccc(C#N)cc21` (stereo not drawn) [Example 2, 4-(Pyridin-4-yl)piperazin-1-[5-cyano-3-(2-ethoxyphenyl)-2-oxo-1-(quinoline-8-sulfonyl)-2,3-dihydro-1H-indol-3-yl]carboxamide], for which the Ki reads like this: under setting [1], less than 50 nM; under setting [2], less than 100 nM. `CCOc1ccccc1C1(NC(=O)N2CCN(c3ccncc3)CC2)C(=O)N(S(=O)(=O)c2ccsc2)c2ccc(C#N)cc21` (stereo not drawn) [Example 3, 4-(Pyridin-4-yl)piperazin-1-[5-cyano-3-(2-ethoxyphenyl)-2-oxo-1-(thien-3-yl-sulfonyl)-2,3-dihydro-1H-indol-3-yl]carboxamide]: the inhibitory constant (Ki) runs as follows: under setting [1], less than 50 nM; under setting [2], less than 100 nM. The matching figures for `CCOc1ccccc1C1(OC(=O)N2CCN(c3ccncc3)CC2)C(=O)N(S(=O)(=O)c2ccsc2)c2ccc(C#N)cc21` (stereo not drawn) [Example 4, 5-Cyano-3-(2-ethoxyphenyl)-2-oxo-1-(thien-3-ylsulfonyl)-2,3-dihydro-1H-indol-3-yl 4-(pyridin-4-yl)piperazine-1-carboxylate]: less than 50 nM and less than 100 nM. On the same counts, the results for `CCOc1ccccc1C1(OC(=O)N2CCN(c3ccccn3)CC2)C(=O)N(S(=O)(=O)c2cccc3cccnc23)c2ccc(C#N)cc21` (stereo not drawn) [Example 5, 5-Cyano-3-(2-ethoxyphenyl)-2-oxo-1-(quinoline-8-sulfonyl)-2,3-dihydro-1H-indol-3-yl 4-(pyridin-2-yl)piperazine-1-carboxylate] are less than 50 nM and less than 100 nM. On the same counts, the results for `CCOc1ccccc1C1(OC(=O)N2CCN(c3ncccn3)CC2)C(=O)N(S(=O)(=O)c2cccc3cccnc23)c2ccc(C#N)cc21` (stereo not drawn) [Example 6, 5-Cyano-3-(2-ethoxyphenyl)-2-oxo-1-(quinoline-8-sulfonyl)-2,3-dihydro-1H-indol-3-yl 4-(pyrimidin-2-yl)piperazine-1-carboxylate] are less than 50 nM and less than 100 nM.

On to `CCOc1ccccc1C1(OC(=O)N2CCN(c3cnccn3)CC2)C(=O)N(S(=O)(=O)c2cccc3cccnc23)c2ccc(C#N)cc21` (stereo not drawn) [Example 7, 5-Cyano-3-(2-ethoxyphenyl)-2-oxo-1-(quinoline-8-sulfonyl)-2,3-dihydro-1H-indol-3-yl 4-(pyrazin-2-yl)piperazine-1-carboxylate], for which the inhibitory constant (Ki) by setting is: under setting [1], 50 to 500 nM; under setting [2], less than 100 nM. On to `CCOc1ccccc1C1(OC(=O)N2CCN(c3nccs3)CC2)C(=O)N(S(=O)(=O)c2ccsc2)c2ccc(C#N)cc21` (stereo not drawn) [Example 8, 5-Cyano-3-(2-ethoxyphenyl)-2-oxo-1-(thien-3-ylsulfonyl)-2,3-dihydro-1H-indol-3-yl 4-(thiazol-2-yl)piperazine-1-carboxylate], for which the Ki under setting [1] was in the range of 50 to 500 nM. Consider `CCOc1ccccc1C1(NC(=O)N2CCN(c3ccc(C#N)cn3)CC2)C(=O)N(S(=O)(=O)c2ccsc2)c2ccc(C#N)cc21` (stereo not drawn) [Example 10, 4-(5-Cyanopyridin-2-yl)piperazine-1-[5-cyano-3-(2-ethoxyphenyl)-2-oxo-1-(thien-3-ylsulfonyl)-2,3-dihydro-1H-indol-3-yl]carboxamide], for which the Ki by setting is: under setting [1], 50 to 500 nM; under setting [2], less than 100 nM. On to `CCOc1ccccc1C1(OC(=O)N2CCN(c3ccc(C#N)cn3)CC2)C(=O)N(S(=O)(=O)c2cccc3cccnc23)c2ccc(C#N)cc21` (stereo not drawn) [Example 11, 5-Cyano-3-(2-ethoxyphenyl)-2-oxo-1-(quinoline-8-sulfonyl)-2,3-dihydro-1H-indol-3-yl 4-(5-cyanopyridin-2-yl)piperazine-1-carboxylate], for which the inhibition constant Ki was less than 50 nM under setting [1] and less than 100 nM under setting [2]. On to `CCOc1ccccc1C1(OC(=O)N2CCN(c3ccncc3)CC2)C(=O)N(S(=O)(=O)c2cccc3cccnc23)c2ccc(C#N)cc21` (stereo not drawn) [Example 12, 5-Cyano-3-(2-ethoxyphenyl)-2-oxo-1-(quinoline-8-sulfonyl)-2,3-dihydro-1H-indol-3-yl 4-(pyridin-4-yl)piperazine-1-carboxylate], for which the Ki was less than 50 nM under setting [1] and less than 100 nM under setting [2].
